SMILES strings stand for the structures.

The target of this experiment is T1, RIP1 (Homo sapiens, UniProt Q13546).
T1 sequence (Q13546 1-671): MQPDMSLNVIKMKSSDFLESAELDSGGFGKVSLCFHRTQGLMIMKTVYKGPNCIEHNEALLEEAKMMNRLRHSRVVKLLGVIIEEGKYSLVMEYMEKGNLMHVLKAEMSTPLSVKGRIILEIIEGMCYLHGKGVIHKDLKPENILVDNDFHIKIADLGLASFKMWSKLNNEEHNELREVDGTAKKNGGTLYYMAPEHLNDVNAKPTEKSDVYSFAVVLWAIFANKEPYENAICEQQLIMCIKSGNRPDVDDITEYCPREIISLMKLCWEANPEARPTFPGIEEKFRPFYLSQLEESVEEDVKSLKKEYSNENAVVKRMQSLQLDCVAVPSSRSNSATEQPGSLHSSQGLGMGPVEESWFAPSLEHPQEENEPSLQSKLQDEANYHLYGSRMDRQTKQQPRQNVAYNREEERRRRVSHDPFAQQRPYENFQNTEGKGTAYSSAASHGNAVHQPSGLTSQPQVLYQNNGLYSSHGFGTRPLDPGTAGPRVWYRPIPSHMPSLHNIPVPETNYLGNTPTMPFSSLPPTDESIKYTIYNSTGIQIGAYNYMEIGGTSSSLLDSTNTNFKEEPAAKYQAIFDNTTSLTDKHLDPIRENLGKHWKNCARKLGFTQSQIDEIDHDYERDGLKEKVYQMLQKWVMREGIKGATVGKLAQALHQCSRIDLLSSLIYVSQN
Nature of the experiment: Cellular RIP1 inhibitory activity: HT-29 necroptosis (TNFα/SMAC mimetic/zVAD-FMK) CellTiter-Glo viability assay. Format: cell-based. Conditions: HT-29 cells, TNF-α 10 ng/ml + SMAC mimetic 6 μM + zVAD-FMK 10 μM, 20 hours, geometric mean, read-out: EC50 Values of in vitro Cellular RIP1 Inhibitory Activity. How it is done: Compounds 1-99 (denoted as Cmpd Nos. 1 through 99 in Table 2 below) of the disclosure were tested for binding and cellular RIP1 inhibitory activity following the experimental procedures described below. Cell Seeding • 1. HT-29 cells were checked every day to make sure that they were healthy and growing as expected. They were subjected to sub-culturing when they were approximately 80% confluent. • 2. The culture medium, McCOY's 5 A medium (Gibco, Cat No. 16600-082) with 10% fetal bovine serum or FBS (Gibco, Cat No. 10099-141C), was pre-warmed in a 37° C. water bath for at least 30 min. • 3. When the cells had reached a desired level of confluency of 80% in a T75 flask, the medium was aspirated, and the cells were washed with warm phosphate buffered saline or PBS two times. • 4. 2-3 ml fresh warm trypsin (Gibco, Cat No. 25200-056) solution was added to the washed cells. The flask with the cells was transferred to a 37° C. incubator. • 5. After 5 minutes, the side of the flask was tapped, and the flask was examined under a microscope for detachment of the cells to the flask. If necessary, the cells were kept in the incubator for an additional 5-10 minutes, with occasional tapping, until lifting was complete. • 6. The trypsin reaction was neutralized by transferring 6-9 ml cell culture medium to sterile 15 ml conical tubes, and by centrifuging the cell culture at 300×g for 7 minutes to pellet the cells (supernatant decanted). • 7. The cells were resuspended in fresh cell culture medium and the cell counting was performed using a hemocytometer. • 8. 100 μl of the resuspended cell culture medium containing ˜5,000 cells were transferred into each well of the sterile 96-well cell culture plate (Corning 3903) and cultured overnight at 37° C. with 5% CO2. Compound Titration and Treatment • 1. All test compounds were dissolved in DMSO (Dimethyl sulfoxide) to create a 20 mM stock. • 2. 3 μl of each compound 20 mM stock was mixed with 27 μl DMSO, and the compound solution was further diluted at a titration ratio of 1:3 (20 μl compound solution+40 μl DMSO) till the 10 points end. • 3. All culture medium was removed from assay plates filled with HT-29 cell cultures. […] 0.5 μL of the diluted compound solution was added to the corresponding 96-well assay plates. • 5. The assay plates were incubated for 20 hours at 37° C. with 5% CO2. Cell Viability Detection • 1. The CellTiter-Glo® Luminescent Cell Viability Assay was employed to detect the ATP levels of viable HT-29 cells. • 2. The CellTiter-Glo® buffer and the lyophilized substrate were equilibriated to room temperature prior to use. • 3. The CellTiter-Glo® substrate was resuspended with CellTiter-Glo® buffer, then mixed by gently vortexing to obtain a homogeneous solution. • 4. 20 μl the enzyme/substrate mixture was transferred by multi-channel pipetting into 96-well assay plates. • 5. The assay plates were placed on an orbital shaker and the contents were shaken for 3 minutes to induce cell lysis. • 6. The assay plates were incubated at room temperature for 10 minutes to stabilize the luminescent signal. • 7. The luminescence signals were read and recorded with EnVision. • 8. The geometric mean EC50 values were calculated from 10 points response dose with duplicates. In Table 2, activity is provided as follows: +++=0.1 nM≤EC50<100 nM; ++=100 nM≤EC50<1000 nM; +=1000 nM≤EC50<10000 nM.
On the technique in general: In ATP-based viability assays light output follows the ATP content of the culture.

Consider `Cc1ncc(CNC(=O)C2CCN(c3ncc(F)c(-c4c(C)cnn4C)n3)CC2)s1` [Compound 50, 1-(4-(1,4-dimethyl-1H-pyrazol-5-yl)-5-fluoropyrimidin-2-yl)-N-((2-methylthiazol-5-yl)methyl)piperidine-4-carboxamide], for which the half-maximal effective concentration (EC50) was 100 to 1000 nM.
`Cc1cnn(C)c1-c1nc(N2CCC(C(=O)N(C)Cc3cscn3)CC2)ncc1F` [Compound 93, 1-(4-(1,4-dimethyl-1H-pyrazol-5-yl)-5-fluoropyrimidin-2-yl)-N-methyl-N-(thiazol-4-ylmethyl) piperidine-4-carboxamide]: the EC50 fell in the range of 0.1 to 100 nM.
The figure for `CN(Cc1cc(F)cc(F)c1F)C(=O)C1CCN(c2ncc(F)c(-c3ncnn3C)n2)CC1` [Compound 68, 1-(5-fluoro-4-(1-methyl-1H-1,2,4-triazol-5-yl)pyrimidin-2-yl)-N-methyl-N-(2,3,5-trifluorobenzyl)piperidine-4-carboxamide] is 0.1 to 100 nM; for `Cc1cnn(C)c1-c1nc(N2CCC(C(=O)N(O)Cc3ncccc3Cl)CC2)ncc1F` [Compound 9, N-((3-chloropyridin-2-yl)methyl)-1-(4-(1,4-dimethyl-1H-pyrazol-5-yl)-5-fluoropyrimidin-2-yl)-N-hydroxypiperidine-4-carboxamide] it is 0.1 to 100 nM.
In the case of `Cc1cnn(C)c1-c1nc(N2CCC(C(=O)N(C)Cc3cc(F)cc(F)c3F)CC2)ncc1F` [Compound 66, 1-(4-(1,4-dimethyl-1H-pyrazol-5-yl)-5-fluoropyrimidin-2-yl)-N-methyl-N-(2,3,5-trifluorobenzyl)piperidine-4-carboxamide], the EC50 was in the range of 0.1 to 100 nM.
In the case of `Cc1cnn(C)c1-c1nc(N2CCC(C(=O)NCc3cscn3)CC2)ncc1F` [Compound 57, 1-(4-(1,4-dimethyl-1H-pyrazol-5-yl)-5-fluoropyrimidin-2-yl)-N-(thiazol-4-ylmethyl) piperidine-4-carboxamide], the EC50 lay within 100 to 1000 nM.
As for `Cc1cnn(C)c1-c1cc(N2CCC(C(=O)N(C)Cc3cc(F)cc(F)c3)CC2)ncn1` [Compound 88, N-(3,5-difluorobenzyl)-1-(6-(1,4-dimethyl-1H-pyrazol-5-yl)pyrimidin-4-yl)-N-methylpiperidine-4-carboxamide], the EC50 fell in the range of 0.1 to 100 nM.
On to `Cc1cnn(C)c1-c1nc(N2CCC(C(=O)N(O)Cc3cnco3)CC2)ncc1F` [Compound 23, 1-(4-(1,4-dimethyl-1H-pyrazol-5-yl)-5-fluoropyrimidin-2-yl)-N-hydroxy-N-(oxazol-5-ylmethyl)piperidine-4-carboxamide], for which the EC50 lay within 0.1 to 100 nM.
As to `Cc1nc(CN(C)C(=O)C2CCN(c3ncc(F)c(-c4c(C)cnn4C)n3)CC2)c(C)s1` [Compound 92], the EC50 was in the range of 100 to 1000 nM.
`CCN(Cc1cc(F)cc(F)c1F)C(=O)C1CCN(c2ncc(F)c(-c3c(C)cnn3C)n2)CC1` [Compound 67, 1-(4-(1,4-dimethyl-1H-pyrazol-5-yl)-5-fluoropyrimidin-2-yl)-N-ethyl-N-(2,3,5-trifluorobenzyl)piperidine-4-carboxamide]: the EC50 was 0.1 to 100 nM.
On to `Cc1cnn(C)c1-c1nc(N2CCC(C(=O)N(O)Cc3cnn(C)c3)CC2)ncc1F` [Compound 3, 1-(4-(1,4-dimethyl-1H-pyrazol-5-yl)-5-fluoropyrimidin-2-yl)-N-hydroxy-N-((1-methyl-1H-pyrazol-4-yl)methyl)piperidine-4-carboxamide], for which the EC50 was in the range of 0.1 to 100 nM.
`Cc1cnn(C)c1-c1nc(N2CCC(C(=O)N(C)Cc3cc(C)n(C)n3)CC2)ncc1F` [Compound 79, N-((1,5-dimethyl-1H-pyrazol-3-yl)methyl)-1-(4-(1,4-dimethyl-1H-pyrazol-5-yl)-5-fluoropyrimidin-2-yl)-N-methylpiperidine-4-carboxamide]: the EC50 was in the range of 100 to 1000 nM.
As for `Cc1cnn(C)c1-c1nc(N2CCC(C(=O)NCc3cc(F)cc(F)c3)CC2)ncc1F` [Compound 62, N-(3,5-difluorobenzyl)-1-(4-(1,4-dimethyl-1H-pyrazol-5-yl)-5-fluoropyrimidin-2-yl)piperidine-4-carboxamide], the EC50 was in the range of 0.1 to 100 nM.
The figure for `Cc1cnn(C)c1-c1nc(N2CCC(C(=O)NCc3cncs3)CC2)ncc1F` [Compound 58] is 100 to 1000 nM.
With `Cc1cnn(C)c1-c1nc(N2CCC(C(=O)N(O)CC3=CCCCC3)CC2)ncc1F` [Compound 48, N-(cyclohex-1-en-1-ylmethyl)-1-(4-(1,4-dimethyl-1H-pyrazol-5-yl)-5-fluoropyrimidin-2-yl)-N-hydroxypiperidine-4-carboxamide], the EC50 fell in the range of 0.1 to 100 nM.
The figure for `Cc1nc(C)c(CNC(=O)C2CCN(c3ncc(F)c(-c4c(C)cnn4C)n3)CC2)s1` [Compound 22, 1-(4-(1,4-dimethyl-1H-pyrazol-5-yl)-5-fluoropyrimidin-2-yl)-N-((2,4-dimethylthiazol-5-yl)methyl)piperidine-4-carboxamide] is 100 to 1000 nM; for `[2H]C([2H])(NC(=O)C1CCN(c2ncc(F)c(-c3nnc(C)s3)n2)CC1)c1cc(F)cc(F)c1F` [Compound 61, 1-(5-fluoro-4-(5-methyl-1,3,4-thiadiazol-2-yl)pyrimidin-2-yl)-N-((2,3,5-trifluorophenyl)methyl-d2)piperidine-4-carboxamide] it is 0.1 to 100 nM.
For the compound `Cc1csc(CN(C)C(=O)C2CCN(c3ncc(F)c(-c4c(C)cnn4C)n3)CC2)n1` [Compound 71, 1-(4-(1,4-dimethyl-1H-pyrazol-5-yl)-5-fluoropyrimidin-2-yl)-N-methyl-N-((4-methylthiazol-2-yl)methyl)piperidine-4-carboxamide], the EC50 was 0.1 to 100 nM.
Consider `Cc1cnn(C)c1-c1nc(N2CCC(C(=O)NCc3ccn(C)n3)CC2)ncc1F` [Compound 44, 1-(4-(1,4-dimethyl-1H-pyrazol-5-yl)-5-fluoropyrimidin-2-yl)-N-((1-methyl-1H-pyrazol-3-yl)methyl)piperidine-4-carboxamide], for which the EC50 lay within 1000 to 10000 nM.
As to `Cc1cnn(C)c1-c1cc(N2CCC(C(=O)N(O)Cc3cc(F)cc(F)c3)CC2)ncn1` [Compound 41, N-(3,5-difluorobenzyl)-1-(6-(1,4-dimethyl-1H-pyrazol-5-yl)pyrimidin-4-yl)-N-hydroxypiperidine-4-carboxamide], the EC50 was 0.1 to 100 nM.
Regarding `CCN(Cc1nccs1)C(=O)C1CCN(c2ncc(F)c(-c3c(C)cnn3C)n2)CC1` [Compound 96, 1-(4-(1,4-dimethyl-1H-pyrazol-5-yl)-5-fluoropyrimidin-2-yl)-N-ethyl-N-(thiazol-2-ylmethyl)piperidine-4-carboxamide], the EC50 was 0.1 to 100 nM.
In the case of `Cc1cnn(C)c1-c1nc(N2CCC(C(=O)N(O)C(C)c3ccccc3)CC2)ncc1F` (stereo not shown) [Compound 34, 1-(4-(1,4-dimethyl-1H-pyrazol-5-yl)-5-fluoropyrimidin-2-yl)-N-hydroxy-N-(1-phenylethyl)piperidine-4-carboxamide], the EC50 lay within 0.1 to 100 nM.

A word on the EC50: it is the concentration needed to bring the measured effect to its halfway point.
